Strand notation (5' to 3'): a small letter for the sugar, then the base; units joined by * are phosphorothioate-linked, units joined directly phosphodiester-linked; [ ] holds rarer units or linkages, { } end groups; capitals alone tell only the bases. e = 2'-O-(2-methoxyethyl) (MOE); k = constrained ethyl (cEt); [5mC] = 5-methylcytosine; d = 2'-deoxy (DNA); m = 2'-O-methyl
Legend:
Assay type in all cases: cell-based
[1] = system: Yap1 mRNA; experiment: Antisense inhibition of human Yap1 in SNU-449 cells by modified oligonucleotides, single dose (Example 5, RTS36584)
Description: Modified oligonucleotides with additional chemistry modifications were designed to target a Yap1 nucleic acid and were tested for their effect on Yap1 mRNA level in SNU-449 cells. The modified oligonucleotides were tested in a series of experiments that had similar culture conditions. Cultured SNU-449 cells at a density of 10,000 cells per well were treated using free uptake with 2,000 nM of modified oligonucleotide. After a treatment period of approximately 48 hours, RNA was isolated from the cells and Yap1 mRNA levels were measured by quantitative real-time RTPCR. Human primer probe set RTS36584 was used to measure mRNA levels. Yap1 mRNA levels were normalized to total RNA content, as measured by RIBOGREEN®. Results are presented in the tables below as percent control of the amount of Yap1 mRNA relative to untreated control cells (% UTC). The modified oligonucleotides with percent control values marked with an asterisk (*) target the amplicon region of the primer probe set. Additional assays may be used to measure the potency and efficacy of the modified oligonucleotides targeting the amplicon region.
Several different chemistry modifications were tested, which are specified in the Chemistry Notation column of the tables below, wherein the notation “d” refers to a 2′-deoxyribose sugar, the notation “s” refers to a phosphorothioate (P═S) internucleoside linkage, the notation “k” refers to a cEt modified sugar, the notation “y” refers to a 2′-O-methyl ribose sugar, the notation “e” refers to a MOE modified sugar, and the notation “^mC” refers to a 5-methylcytosine.
“Start site” indicates the 5′-most nucleoside to which the gapmer is targeted in the human gene sequence. “Stop site” indicates the 3′-most nucleoside to which the gapmer is targeted human gene sequence. […] Activity of the modified oligonucleotide may be defined in a different experiment.

[2] = system: Yap1 mRNA; experiment: Dose-dependent inhibition of human Yap1 in A-431 cells (Example 8, 10,000 cells per well, RTS4814); settings: free uptake, approximately 48 hours, RTS4814; for Yap1 mRNA, % UTC: A-431 cells, 10,000 cells per well; for IC50: A-431 cells, linear regression on log/linear plot
How it was run: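 Yap1 mRNA, normalized to RIBOGREEN total RNA and expressed as % untreated control, was read with RTS4814 about 48 h after free-uptake oligonucleotide treatment of A-431 cells at 10,000 cells/well. IC50 derived by linear regression of log/linear data.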

[3] = system: Yap1 mRNA; experiment: Antisense inhibition of human Yap1 in A-431 cells by cEt gapmers, single dose (Example 2, RTS4814); settings: 3-10-3 cEt gapmers targeting SEQ ID NO.: 1, and 2
How it was run: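 Read-out is Yap1 mRNA as percent of untreated cells, by real-time RT-PCR (probe set RTS4814) normalized to total RNA via RIBOGREEN. Cells were A-431 dosed with 2,000 nM gapmer without transfection for approximately 48 hours.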

[4] = Yap1 mRNA, percent of untreated control, modified oligonucleotides targeting SEQ ID NO: 1 and 2, Table 47
[5] = Yap1 mRNA as percent of untreated control, A-431 cells, Table 30
[6] = Yap1 mRNA as percent of untreated control, A-431 cells, Table 31

Substance	Yap1 mRNA, % UTC ([2]; 31.3 nM) [% UTC]	Yap1 mRNA, % UTC ([2]; 125.0 nM) [% UTC]	Yap1 mRNA, % UTC ([2]; 500.0 nM) [% UTC]	Yap1 mRNA, % UTC ([2]; 2000.00 nM) [% UTC]	IC50 [2] [nM]	also measured
1200858 (kA*kA*kG*dT*dG*mU*dA*dT*dG*dT*d[5mC]*dA*dG*kA*kA*kG; antisense) [Compound 1200858]						YAP1 (% UT) ([1]; Table 52, Yap1 mRNA, modified oligonucleotides targeting SEQ ID NO: 1 and 2): 10 % UT
1095379 (antisense kA*d[5mC]*dT*dG*dA*dG*dG*dT*dA*dT*dA*kA*e[5mC]*kT*eG*kG) [Compound 1095379]						YAP1 (% UTC) ([1]; Table 39, SNU-449 cells, 10,000 cells per well, free uptake, 2,000 nM oligonucleotide, approx. 48 hours, RTS36584, normalized to RIBOGREEN, Yap1 mRNA relative to untreated control): 52 % UTC
1197206 (antisense kA*kT*kA*dT*dT*dG*d[5mC]*dA*dA*dT*d[5mC]*dT*dG*kT*k[5mC]*kT) [Compound 1197206]						YAP1 (% UT) [1, 4]: 63 % UT
1198869 (kA*kT*dG*dT*dA*dA*dT*dA*dT*dT*dG*k[5mC]*eA*kA*eT*k[5mC]; antisense) [Compound 1198869]						YAP1 (% UT) ([1]; Table 46, Yap1 mRNA as percent of untreated control, SNU-449 cells, single dose): 49 % UT
1197180 (antisense kA*kT*kG*dG*dA*dA*dA*dT*dT*dG*dT*d[5mC]*dT*k[5mC]*kA*kT) [Compound 1197180]						YAP1 (% UT) [1, 4]: 47 % UT
1198618 (antisense kA*kA*k[5mC]*dT*dT*dT*dA*dA*dA*dG*dT*dG*kT*kA*kT*eG) [Compound 1198618]						YAP1 (% UT) ([1]; Table 50, Yap1 mRNA remaining as percent of untreated control (UT), SNU-449 cells, single dose): 74 % UT
1197237 (antisense kT*kA*kT*dA*mA*d[5mC]*dT*dG*dG*dG*d[5mC]*dA*dA*kA*kT*kT) [Compound 1197237]						YAP1 (% UT) ([1]; Table 51, Yap1 mRNA remaining as percent of untreated control (UT), SNU-449 cells, single dose): 74 % UT
1075824 (kG*kT*kA*dT*dT*dA*dG*dA*dG*dG*dT*dT*d[5mC]*k[5mC]*kA*kG; antisense) [compound 1075824]	33	10	5	3	< 20	YAP1 (% UTC) [3, 5]: 3 % UTC
1074578 (DNA kG*k[5mC]*kT*dT*dA*dT*dT*dT*d[5mC]*dT*dG*dT*d[5mC]*kA*kT*kG) [compound 1074578]	66	30	18	11	100	YAP1 (% UTC) ([3]; Table 32, Yap1 mRNA, percent of untreated control): 8 % UTC
1074800 (k[5mC]*kA*kA*dA*dT*dA*dG*dT*dG*d[5mC]*dT*dT*dT*kG*kG*kA; antisense) [compound 1074800]	48	21	10	7	< 20	YAP1 (% UTC) [3, 5]: 6 % UTC
1075088 (kA*kT*kT*dT*dA*dT*dA*dG*dT*d[5mC]*dA*dG*dG*kT*kT*k[5mC]; antisense) [compound 1075088]	37	9	4	2	< 20	YAP1 (% UTC) [3, 5]: 2 % UTC
1076049 (kA*kG*kA*dT*dT*dA*dA*dA*dG*dG*d[5mC]*dT*dG*kG*kA*kA; antisense) [compound 1076049]	61	16	13	6	< 20	YAP1 (% UTC) [3, 6]: 4 % UTC
1076465 (kG*k[5mC]*kT*dT*dA*dA*dG*dG*dA*dA*dT*dA*dT*kA*k[5mC]*kA; antisense) [compound 1076465]	72	32	14	7	100	YAP1 (% UTC) [3, 6]: 5 % UTC
1074579 (DNA k[5mC]*k[5mC]*kA*d[5mC]*dT*dA*dT*dA*dA*dA*dG*d[5mC]*dT*kT*kA*kT) [compound 1074579]	54	22	8	5	< 20	YAP1 (% UTC) ([3]; Table 33, Yap1 mRNA, percent of untreated control): 6 % UTC

Reference: US11214803B2, “Modulators of YAP1 expression” (Ionis Pharmaceuticals, Inc., priority 2019, dated 2022)
